Laboratory results published in article PMC8409970, “In vitro and in silico studies of bis (indol-3-yl) methane derivatives as potential α-glucosidase and α-amylase inhibitors” (Journal of Enzyme Inhibition and Medicinal Chemistry, 2021).

How the values were obtained:
α-glucosidase = α-glucosidase (Saccharomyces cerevisiae, UniProt P53341); test: α-Glucosidase inhibition assay (PNPG substrate); assay type: biochemical; settings: pH 6.8, 37 °C
Procedure: The in vitro α-glucosidase inhibitory activities of all synthesised compounds were evaluated using p-nitrophenyl-α-D-glucopyranoside (PNPG) as substrate.
The α-glucosidase inhibitory activity of compounds 5a ∼ c, 6a ∼ c, and 7a ∼ c were performed according to our previous report.[30]^,[31] The 10 μL of α-glucosidase enzyme (final concentration 0.1 U/mL) and 10 μL of test compounds (dissolved in DMSO) were added into 130 μL of phosphate buffer (0.1 M, pH 6.8), followed 10 min incubation at 37 °C. Then 50 μL of PNPG (final concentration 0.25 mM) was added, and mixture was continuely incubated for 20 min at 37 °C. The absorbance at 405 nm was measured using Multimodel Reader. The percentage of enzyme inhibition was calculated: % Inhibition = [(A1– A0)/A0] × 100%, where A1 was the absorbance with the test compound, and A0 was the absorbance without the test compound. The IC50 value of compound was obtained from the plot of inhibition percentage vs test compound at different concentrations. […] The experiment was performed in duplicate.

α-amylase = target: T1, α-amylase (Sus scrofa, UniProt P00690); test: α-Amylase inhibition assay (starch/DNS); assay type: biochemical; settings: starch substrate, pH 6.9, 37 °C
T1 sequence (P00690 16-511): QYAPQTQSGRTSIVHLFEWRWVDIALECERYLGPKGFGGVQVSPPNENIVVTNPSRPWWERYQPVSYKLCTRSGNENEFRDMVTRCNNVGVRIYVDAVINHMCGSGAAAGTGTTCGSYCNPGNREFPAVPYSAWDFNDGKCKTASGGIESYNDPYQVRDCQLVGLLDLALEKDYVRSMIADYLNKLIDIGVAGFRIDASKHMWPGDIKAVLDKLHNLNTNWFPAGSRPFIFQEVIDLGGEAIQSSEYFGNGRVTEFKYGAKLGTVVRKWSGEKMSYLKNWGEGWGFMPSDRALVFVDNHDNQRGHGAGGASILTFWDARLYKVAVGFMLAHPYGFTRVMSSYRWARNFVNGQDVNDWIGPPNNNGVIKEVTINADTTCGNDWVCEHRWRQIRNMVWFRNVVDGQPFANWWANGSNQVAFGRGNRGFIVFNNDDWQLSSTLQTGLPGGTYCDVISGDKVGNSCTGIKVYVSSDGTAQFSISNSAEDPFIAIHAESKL
Procedure: The α-amylase inhibitory activity of all tested compounds was performed according to previous report.[33]^,[34] A 10 μL of α-amylase enzyme solution (final concentration 0.25 U/mL), 10 μL of test compounds (dissolved in DMSO), and 80 μL of phosphate buffer (20 mM, pH 6.9) were mixed and incubated for 10 min at 37 °C. Next, 100 μL starch solution (final concentration 0.5%) was added into the mixture followed by an incubation of 10 min. After 100 μL DNS (containing 1 M Potassium sodium tartrate and 48 mM 3,5-Dinitrosalicylic acid) was added, the mixture was kept incubated in boiling water for 15 min. Finally, the absorbance was measured at 540 nm after dilution of solution by adding 900 μL distilled water. The percentage of enzyme inhibition was calculated: % Inhibition = [(A1– A0)/A0] × 100%, where A1 was the absorbance with the test compound, and A0 was the absorbance without the test compound. The IC50 value of compound was obtained from the plot of inhibition percentage vs test compound at different concentrations. […] The experiment was performed in duplicate.

α-glucosidase, sequence (P53341 whole entry): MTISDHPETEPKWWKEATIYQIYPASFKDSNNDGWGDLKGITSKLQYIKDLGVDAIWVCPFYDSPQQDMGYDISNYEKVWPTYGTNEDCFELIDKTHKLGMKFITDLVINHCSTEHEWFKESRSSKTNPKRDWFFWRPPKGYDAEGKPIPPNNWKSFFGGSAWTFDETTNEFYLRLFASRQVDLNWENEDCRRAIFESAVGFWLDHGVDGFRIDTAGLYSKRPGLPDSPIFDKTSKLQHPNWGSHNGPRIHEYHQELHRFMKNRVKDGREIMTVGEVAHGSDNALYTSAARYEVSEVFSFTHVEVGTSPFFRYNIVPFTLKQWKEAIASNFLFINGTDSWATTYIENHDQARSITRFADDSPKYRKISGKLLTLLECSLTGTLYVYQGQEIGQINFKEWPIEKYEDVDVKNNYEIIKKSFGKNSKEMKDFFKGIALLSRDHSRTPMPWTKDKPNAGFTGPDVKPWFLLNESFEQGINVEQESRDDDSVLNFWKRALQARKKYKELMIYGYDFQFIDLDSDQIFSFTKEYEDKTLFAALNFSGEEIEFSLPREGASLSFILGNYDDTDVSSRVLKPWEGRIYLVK

## 2,2-Bis(1-methyl-1H-pyrrol-3-yl)acetonitrile [Compound 6a]
α-glucosidase
  IC50: 220 ± 5.02 µM
α-amylase
  IC50: 464 ± 9.47 µM

## 2,2-Di(1H-pyrrol-3-yl)acetonitrile [Compound 6c]
α-glucosidase
  IC50: 130 ± 3.81 µM
α-amylase
  IC50: 419 ± 11.3 µM
